# Test results from publication PMC3100226 (Journal of Pain Research, 2011).
# Key:
# Sigma (σ1 + σ2) = assay: Receptor characterization panel: sigma binding; conditions: [3H]DTG, whole brain/rat
# MAO-A = molecular target: T1, MAO-A (Rattus norvegicus, UniProt P21396); assay: MAO-A binding
# T1 sequence (P21396 1-526): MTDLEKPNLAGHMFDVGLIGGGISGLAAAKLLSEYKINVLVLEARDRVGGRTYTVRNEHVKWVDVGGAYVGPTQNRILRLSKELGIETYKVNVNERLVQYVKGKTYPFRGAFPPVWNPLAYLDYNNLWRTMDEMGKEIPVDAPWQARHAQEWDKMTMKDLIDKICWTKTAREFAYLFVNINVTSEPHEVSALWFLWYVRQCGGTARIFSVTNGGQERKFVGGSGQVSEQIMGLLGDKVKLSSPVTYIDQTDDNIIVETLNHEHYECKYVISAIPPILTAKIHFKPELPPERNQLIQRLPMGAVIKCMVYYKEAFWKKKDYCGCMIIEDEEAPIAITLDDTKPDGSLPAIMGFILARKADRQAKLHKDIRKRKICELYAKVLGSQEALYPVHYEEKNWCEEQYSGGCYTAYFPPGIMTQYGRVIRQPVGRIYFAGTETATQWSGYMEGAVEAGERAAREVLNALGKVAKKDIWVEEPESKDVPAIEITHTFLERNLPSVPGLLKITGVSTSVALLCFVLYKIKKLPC
# [1] = system: CFA-induced inflammatory pain in rats; assay: CFA-induced mechanical hyperalgesia; assay type: in vivo; conditions: rat; p.o., 24 hours after CFA
# PI 3-Kδ = PI 3-Kδ (Homo sapiens, UniProt O00329); assay: Enzyme characterization panel: PI 3-Kδ; assay type: biochemical; conditions: data not shown
# D1 = D1 (Rattus norvegicus, UniProt P18901); assay: Receptor characterization panel: D1 binding; conditions: read-out: 10 μM CR4056 (% effect), inhibition of specific binding
# [2] = system: STZ-induced diabetic pain in rats; assay: Streptozotocin-induced neuropathic; assay type: in vivo; conditions: rat, 60 mg/kg oral
# GABA-A (muscimol site) = assay: Receptor characterization panel: GABA-A muscimol site binding; conditions: 10 μM; [3H]Muscimol; cerebral cortex/rat
# CCK2 = molecular target: T2, CCK2 (Cavia porcellus, UniProt H0VZC5); assay: Receptor characterization panel: CCK2 binding; parameters: species or system guinea pig; conditions: read-out: 10 μM CR4056 (% effect), inhibition of specific binding
# T2 sequence (H0VZC5 1-426): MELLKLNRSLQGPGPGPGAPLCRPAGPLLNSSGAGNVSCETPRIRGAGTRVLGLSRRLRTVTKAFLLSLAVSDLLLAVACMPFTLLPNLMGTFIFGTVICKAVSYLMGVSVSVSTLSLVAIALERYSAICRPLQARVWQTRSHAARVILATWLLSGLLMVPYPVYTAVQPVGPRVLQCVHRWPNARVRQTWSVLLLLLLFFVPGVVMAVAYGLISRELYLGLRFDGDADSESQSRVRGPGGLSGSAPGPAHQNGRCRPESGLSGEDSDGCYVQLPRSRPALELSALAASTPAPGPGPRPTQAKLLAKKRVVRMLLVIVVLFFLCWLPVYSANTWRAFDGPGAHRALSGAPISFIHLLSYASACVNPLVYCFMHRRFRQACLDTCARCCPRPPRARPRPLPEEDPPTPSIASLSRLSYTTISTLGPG
# PI 3-Kγ = PI 3-Kγ (Homo sapiens, UniProt P48736); assay: Enzyme characterization panel: PI 3-Kγ; assay type: biochemical; conditions: data not shown
# CCK1 = CCK1 (Rattus norvegicus, UniProt P30551); assay: Receptor characterization panel: CCK1 binding; conditions: read-out: 10 μM CR4056 (% effect), inhibition of specific binding
# Chain of CCK1 (P30551 whole entry): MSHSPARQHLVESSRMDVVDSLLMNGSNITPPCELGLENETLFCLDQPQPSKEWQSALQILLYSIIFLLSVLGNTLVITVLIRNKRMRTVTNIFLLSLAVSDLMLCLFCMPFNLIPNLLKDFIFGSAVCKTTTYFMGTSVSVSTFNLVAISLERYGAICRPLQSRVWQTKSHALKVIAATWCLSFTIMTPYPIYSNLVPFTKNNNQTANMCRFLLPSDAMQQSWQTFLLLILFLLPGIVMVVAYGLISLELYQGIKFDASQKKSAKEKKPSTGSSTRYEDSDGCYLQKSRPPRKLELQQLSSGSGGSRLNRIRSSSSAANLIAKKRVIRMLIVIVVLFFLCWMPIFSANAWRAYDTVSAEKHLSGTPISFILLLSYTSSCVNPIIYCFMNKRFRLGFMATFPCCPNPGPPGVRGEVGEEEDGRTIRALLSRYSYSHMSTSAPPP
# Chain of PI 3-Kδ (O00329 whole entry, species assumed): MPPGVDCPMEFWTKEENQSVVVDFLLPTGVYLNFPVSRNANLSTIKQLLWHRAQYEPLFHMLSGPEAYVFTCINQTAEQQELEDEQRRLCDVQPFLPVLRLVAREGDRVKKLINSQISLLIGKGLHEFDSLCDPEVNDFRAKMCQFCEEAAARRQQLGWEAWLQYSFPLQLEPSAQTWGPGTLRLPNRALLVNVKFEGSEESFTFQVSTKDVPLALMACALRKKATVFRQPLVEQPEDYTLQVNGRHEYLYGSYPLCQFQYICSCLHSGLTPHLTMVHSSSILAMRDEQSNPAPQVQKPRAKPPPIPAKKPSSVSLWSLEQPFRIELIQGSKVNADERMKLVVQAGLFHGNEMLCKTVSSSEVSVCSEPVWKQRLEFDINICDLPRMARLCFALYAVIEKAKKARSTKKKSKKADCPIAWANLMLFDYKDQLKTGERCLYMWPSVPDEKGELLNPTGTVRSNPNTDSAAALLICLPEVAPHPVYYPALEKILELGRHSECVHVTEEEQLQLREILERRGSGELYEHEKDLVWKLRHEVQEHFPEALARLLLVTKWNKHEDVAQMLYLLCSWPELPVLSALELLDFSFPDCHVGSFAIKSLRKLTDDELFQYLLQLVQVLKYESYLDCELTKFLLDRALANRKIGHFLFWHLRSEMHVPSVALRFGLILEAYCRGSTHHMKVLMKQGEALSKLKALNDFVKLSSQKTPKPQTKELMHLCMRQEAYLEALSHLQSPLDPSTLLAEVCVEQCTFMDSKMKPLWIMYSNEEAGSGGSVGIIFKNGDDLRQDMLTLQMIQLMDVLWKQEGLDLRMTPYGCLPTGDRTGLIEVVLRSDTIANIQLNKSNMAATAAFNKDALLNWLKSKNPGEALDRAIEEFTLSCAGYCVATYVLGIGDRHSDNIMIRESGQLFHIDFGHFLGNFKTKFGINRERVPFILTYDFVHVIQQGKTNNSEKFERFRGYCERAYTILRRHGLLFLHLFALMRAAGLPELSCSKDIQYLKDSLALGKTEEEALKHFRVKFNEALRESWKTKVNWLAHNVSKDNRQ
# Chain of PI 3-Kδ (P27986 whole entry partner, species assumed): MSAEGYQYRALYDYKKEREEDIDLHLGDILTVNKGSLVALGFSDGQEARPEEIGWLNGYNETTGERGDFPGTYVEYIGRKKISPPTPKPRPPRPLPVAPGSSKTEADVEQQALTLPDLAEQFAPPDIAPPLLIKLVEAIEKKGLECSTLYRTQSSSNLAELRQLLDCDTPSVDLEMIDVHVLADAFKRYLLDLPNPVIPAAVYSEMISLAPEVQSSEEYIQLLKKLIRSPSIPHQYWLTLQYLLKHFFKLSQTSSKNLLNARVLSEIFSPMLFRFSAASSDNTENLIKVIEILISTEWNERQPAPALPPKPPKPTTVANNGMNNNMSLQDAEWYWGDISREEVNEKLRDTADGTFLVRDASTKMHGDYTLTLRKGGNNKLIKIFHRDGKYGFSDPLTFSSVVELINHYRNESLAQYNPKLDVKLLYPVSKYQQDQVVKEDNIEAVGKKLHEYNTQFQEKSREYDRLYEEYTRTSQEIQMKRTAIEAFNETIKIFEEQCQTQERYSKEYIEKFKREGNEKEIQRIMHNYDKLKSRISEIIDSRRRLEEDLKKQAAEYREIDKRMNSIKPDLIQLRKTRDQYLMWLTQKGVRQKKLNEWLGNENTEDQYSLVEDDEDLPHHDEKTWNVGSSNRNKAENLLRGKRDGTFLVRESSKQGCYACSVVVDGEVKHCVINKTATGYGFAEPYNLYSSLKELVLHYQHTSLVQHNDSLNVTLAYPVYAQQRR
# Chain of D1 (P18901 whole entry): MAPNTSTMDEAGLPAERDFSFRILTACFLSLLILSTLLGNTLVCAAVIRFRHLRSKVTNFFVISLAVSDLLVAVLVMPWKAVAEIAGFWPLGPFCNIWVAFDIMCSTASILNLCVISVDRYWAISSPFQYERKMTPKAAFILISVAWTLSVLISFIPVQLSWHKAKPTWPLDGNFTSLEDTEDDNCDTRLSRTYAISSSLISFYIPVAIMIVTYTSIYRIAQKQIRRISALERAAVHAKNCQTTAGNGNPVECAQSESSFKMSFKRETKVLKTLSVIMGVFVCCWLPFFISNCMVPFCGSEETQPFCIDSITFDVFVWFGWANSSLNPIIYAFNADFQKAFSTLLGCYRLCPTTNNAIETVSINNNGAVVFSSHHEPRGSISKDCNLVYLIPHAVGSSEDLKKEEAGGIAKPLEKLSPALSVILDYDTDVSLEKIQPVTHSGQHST
# Chain of PI 3-Kγ (P48736 whole entry, species assumed): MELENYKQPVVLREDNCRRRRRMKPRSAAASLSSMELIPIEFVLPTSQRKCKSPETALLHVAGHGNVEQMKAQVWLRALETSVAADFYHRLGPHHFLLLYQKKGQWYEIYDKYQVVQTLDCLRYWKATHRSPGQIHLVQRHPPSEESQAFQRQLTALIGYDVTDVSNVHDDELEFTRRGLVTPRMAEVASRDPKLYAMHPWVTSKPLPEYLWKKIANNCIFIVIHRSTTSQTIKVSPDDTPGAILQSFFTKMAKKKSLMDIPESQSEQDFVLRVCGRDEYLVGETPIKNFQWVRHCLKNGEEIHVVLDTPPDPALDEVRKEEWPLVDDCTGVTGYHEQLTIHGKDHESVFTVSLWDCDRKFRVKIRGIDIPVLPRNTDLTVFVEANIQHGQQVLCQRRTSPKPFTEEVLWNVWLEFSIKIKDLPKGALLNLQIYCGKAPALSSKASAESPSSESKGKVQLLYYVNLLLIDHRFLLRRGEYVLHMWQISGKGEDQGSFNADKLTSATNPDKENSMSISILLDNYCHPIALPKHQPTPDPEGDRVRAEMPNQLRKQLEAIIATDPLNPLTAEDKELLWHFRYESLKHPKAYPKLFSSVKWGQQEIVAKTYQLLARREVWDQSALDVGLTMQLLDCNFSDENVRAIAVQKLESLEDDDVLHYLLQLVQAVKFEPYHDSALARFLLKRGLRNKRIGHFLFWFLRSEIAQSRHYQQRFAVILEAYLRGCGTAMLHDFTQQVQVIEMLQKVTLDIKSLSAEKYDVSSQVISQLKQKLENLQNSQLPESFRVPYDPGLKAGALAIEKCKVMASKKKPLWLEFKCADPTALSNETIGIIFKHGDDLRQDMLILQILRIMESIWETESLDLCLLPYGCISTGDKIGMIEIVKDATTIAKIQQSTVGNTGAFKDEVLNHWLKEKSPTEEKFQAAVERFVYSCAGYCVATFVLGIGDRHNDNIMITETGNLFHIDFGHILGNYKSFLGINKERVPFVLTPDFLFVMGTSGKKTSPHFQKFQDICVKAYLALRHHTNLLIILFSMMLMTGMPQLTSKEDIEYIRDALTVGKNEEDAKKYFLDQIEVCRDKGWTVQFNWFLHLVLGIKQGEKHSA
compound,measurement,setting,value
"c1ccc(-c2ncc3cc(-n4ccnc4)ccc3n2)cc1 [CR4056, 2-phenyl-6-(1H-imidazol-1yl)quinazoline]","10 μM CR4056 (% effect), inhibition of specific binding",Sigma (σ1 + σ2),18%
same,IC50,MAO-A,358 ± 12 nM
same,inhibition at 10 µM,"MAO-A; read-out: 10 μM CR4056 (% effect), inhibition of specific binding, 10 μM, [3H]Ro 41-1049, cerebral cortex/rat",> 90%
same,"ED100 (calculated), complete reversion of CFA-induced hyperalgesia",[1],22.3 mg/kg
same,Activity in enzyme characterization panel,PI 3-Kδ,inactive
same,inhibition at 10 µM,D1,19%
same,"Decrease of total STZ-induced hyperalgesic effect, AUC analysis (0–6 hours)",[2],84%
same,Reduction of mechanical hyperalgesia at 6 hours post-dosing,[2],58%
same,Reversal of STZ-induced mechanical hyperalgesia,[2]; within 30 minutes,completely reversed
same,"10 μM CR4056 (% effect), inhibition of specific binding",GABA-A (muscimol site),26%
same,inhibition at 10 µM,CCK2,16%
same,Activity in enzyme characterization panel,PI 3-Kγ,inactive
same,inhibition at 10 µM,CCK1,21%
